Laboratory results as given in ChEMBL document CHEMBL4376815, “The Development Process for Discovery and Clinical Advancement of Modern Antimalarials” (J Med Chem, 2019).
pEC50, pIC50: −log10 of the molar value. In brackets after ≈: the same amount, converted by molar mass.

What was measured:
[1] = Apparent clearance in human at 300 mg, po and measured up to 96 to 144 hrs by LC-MS/MS analysis; settings: in vivo, read-out: CL(app) (converted)
[2] = Oral bioavailability in Wistar Hannover rat at 10 mg/kg by LC-MS/MS analysis; format: ADME, organism-based; settings: in vivo
[3] = biological target: T1, Voltage-gated inwardly rectifying potassium channel KCNH2 (Homo sapiens, UniProt Q12809); assay: Inhibition of human ERG by patch clamp method
[4] = Oral bioavailability in mouse at 24.6 mg/kg and measured up to 24 hrs by LC/MS analysis; format: ADME, organism-based; settings: in vivo
Plasmodium berghei [5] = assay: Antimalarial activity against Plasmodium berghei infected in NMRI mouse assessed as reduction in parasite growth at 10 mg/kg, po administered once and measured after 96 hrs by flow cytometric analysis relative to control; format: functional; design: scale not given: the % may be the effect or the level left
[6] = Half life in Wistar Hannover rat at 5 mg/kg, iv by LC-MS/MS analysis; settings: in vivo
[7] = Tmax in human at […], po and measured up to 96 to 144 hrs by LC-MS/MS analysis; format: ADME, organism-based; settings: in vivo
Plasmodium falciparum [8] = assay: Antimalarial activity against Plasmodium falciparum TM90C2A infected in human erythrocytes assessed as reduction in [3H]-hypoxanthine incorporation incubated for 48 hrs followed by addition of [3H]-hypoxanthine and measured after 24 hrs by liquid scintillation counting method; format: functional, organism-based
[9] = Half life in human; format: ADME
Plasmodium falciparum [10] = assay: Antimalarial activity against Plasmodium falciparum NF54 infected in human erythrocytes assessed as reduction in [3H]-hypoxanthine incorporation incubated for 48 hrs followed by addition of [3H]-hypoxanthine and measured after 24 hrs by liquid scintillation counting method; format: functional, organism-based
[11] = biological target: T1, Voltage-gated inwardly rectifying potassium channel KCNH2; assay: Inhibition of human ERG by binding assay
[12] = Cmax in human at 150 mg, po for 3 days and measured on day 1 by LC-MS/MS analysis; settings: in vivo
[13] = Plasma protein binding in human; format: ADME, cell-free; settings: read-out: PPB
Plasmodium falciparum [14] = assay: Antimalarial activity against Plasmodium falciparum infected in human assessed as median parasite clearance time at 30 mg/kg, po administered daily for 3 consecutive day and measured on day 5; format: functional
[15] = AUC (0 to 24 hrs) in human at 150 mg, po for 3 days and measured on day 3 by LC-MS/MS analysis; settings: in vivo
[16] = Volume of distribution in Wistar Hannover rat at 5 mg/kg, iv by LC-MS/MS analysis; format: ADME, organism-based; settings: in vivo
[17] = Cmax in Beagle dog at 3 mg/kg, po by LC-MS/MS analysis; format: ADME, organism-based, Canis lupus familiaris; design: dose 3 mg/kg, route oral; settings: in vivo
[18] = Tmax in mouse at 24.6 mg/kg, po and measured up to 24 hrs by LC/MS analysis; format: ADME, organism-based; settings: in vivo
Plasmodium falciparum [19] = assay: Antimalarial activity against Plasmodium falciparum W2 infected in human erythrocytes assessed as reduction in [3H]-hypoxanthine incorporation incubated for 48 hrs followed by addition of [3H]-hypoxanthine and measured after 24 hrs by liquid scintillation counting method; format: functional, organism-based
Plasmodium berghei [20] = assay: Antimalarial activity against Plasmodium berghei infected in NMRI mouse assessed as reduction in parasite growth at 5.3 mg/kg, po administered daily for 3 consecutive days by flow cytometric analysis relative to control; format: functional; design: scale not given: the % may be the effect or the level left
Plasmodium falciparum [21] = assay: Antimalarial activity against Plasmodium falciparum V1/S infected in human erythrocytes assessed as reduction in [3H]-hypoxanthine incorporation incubated for 48 hrs followed by addition of [3H]-hypoxanthine and measured after 24 hrs by liquid scintillation counting method; format: functional, organism-based
Plasmodium berghei [22] = assay: Antimalarial activity against Plasmodium berghei infected in NMRI mouse assessed as mean survival days at 100 mg/kg, po administered once and measured up to 30 days; format: functional
Plasmodium falciparum [23] = assay: Antimalarial activity against Plasmodium falciparum infected in po dosed human assessed as reduction in parasite growth; format: functional
Plasmodium falciparum [24] = assay: Antimalarial activity against Plasmodium falciparum D6 infected in human erythrocytes assessed as reduction in [3H]-hypoxanthine incorporation incubated for 48 hrs followed by addition of [3H]-hypoxanthine and measured after 24 hrs by liquid scintillation counting method; format: functional, organism-based
[25] = AUC (0 to 24 hrs) in human at 150 mg, po for 3 days and measured on day 1 by LC-MS/MS analysis; settings: in vivo
Plasmodium falciparum [26] = assay: Antimalarial activity against Plasmodium falciparum infected in human assessed as reduction in parasite growth at 30 mg/kg, po administered daily for 3 consecutive day and measured on day 5 relative to control; format: functional; design: scale not given: the % may be the effect or the level left
[27] = Cmax in human at […], po and measured up to 96 to 144 hrs by LC-MS/MS analysis; format: ADME, organism-based; design: route oral; settings: in vivo
[28] = Tmax in Beagle dog at 3 mg/kg, po by LC-MS/MS analysis; format: ADME, organism-based, Canis lupus familiaris; settings: in vivo
[29] = Half life in human at 300 mg/kg, po by LC-MS/MS analysis; settings: in vivo
[30] = Cytotoxicity against human THP1 cells assessed as reduction in cell viability after 4 days by XTT assay; format: cell-based; settings: THP-1 cells
Plasmodium vivax [31] = assay: Antimalarial activity against Plasmodium vivax infected in human assessed as reduction in parasite growth at 30 mg/kg, po administered daily for 3 consecutive day and measured on day 5 relative to control; format: functional; design: scale not given: the % may be the effect or the level left
[32] = Cmax in human at 150 mg, po for 3 days and measured on day 3 by LC-MS/MS analysis; settings: in vivo
[33] = Drug recovery in feces of po dosed human by LC-MS/MS analysis; format: ADME, organism-based; settings: faeces, read-out: Drug recovery
Plasmodium falciparum [34] = assay: Antimalarial activity against Plasmodium falciparum 3D7 infected in human erythrocytes assessed as reduction in [3H]-hypoxanthine incorporation incubated for 48 hrs followed by addition of [3H]-hypoxanthine and measured after 24 hrs by liquid scintillation counting method; format: functional, organism-based
[35] = Clearance in Beagle dog at 1 mg/kg, iv by LC-MS/MS analysis; format: ADME, organism-based, Canis lupus familiaris; settings: in vivo
[36] = Volume of distribution in Beagle dog at 1 mg/kg, iv by LC-MS/MS analysis; format: ADME, organism-based, Canis lupus familiaris; settings: in vivo
Plasmodium vivax [37] = assay: Antimalarial activity against Plasmodium vivax infected in human assessed as parasite clearance time at 30 mg/kg, po administered daily for 3 consecutive day and measured on day 5; format: functional
[38] = Tmax in Wistar Hannover rat at 10 mg/kg, po by LC-MS/MS analysis; format: ADME, organism-based; settings: in vivo
in vivo = settings: rat, po, 23.7 mg/kg
Description: Half life in rat at 23.7 mg/kg, po and measured up to 24 hrs by LC/MS analysis

Plasmodium vivax [39] = assay: Antimalarial activity against Plasmodium vivax infected in human assessed as median parasite clearance time at 30 mg/kg, po administered daily for 3 consecutive day and measured on day 5; format: functional
Plasmodium berghei [40] = assay: Antimalarial activity against Plasmodium berghei infected in po dosed NMRI mouse assessed as reduction in parasite growth administered daily for 3 consecutive days by flow cytometric analysis; format: functional
Plasmodium falciparum [41] = assay: Antimalarial activity against Plasmodium falciparum 7G8 infected in human erythrocytes assessed as reduction in [3H]-hypoxanthine incorporation incubated for 48 hrs followed by addition of [3H]-hypoxanthine and measured after 24 hrs by liquid scintillation counting method; format: functional, organism-based

T1 sequence (Q12809 whole entry): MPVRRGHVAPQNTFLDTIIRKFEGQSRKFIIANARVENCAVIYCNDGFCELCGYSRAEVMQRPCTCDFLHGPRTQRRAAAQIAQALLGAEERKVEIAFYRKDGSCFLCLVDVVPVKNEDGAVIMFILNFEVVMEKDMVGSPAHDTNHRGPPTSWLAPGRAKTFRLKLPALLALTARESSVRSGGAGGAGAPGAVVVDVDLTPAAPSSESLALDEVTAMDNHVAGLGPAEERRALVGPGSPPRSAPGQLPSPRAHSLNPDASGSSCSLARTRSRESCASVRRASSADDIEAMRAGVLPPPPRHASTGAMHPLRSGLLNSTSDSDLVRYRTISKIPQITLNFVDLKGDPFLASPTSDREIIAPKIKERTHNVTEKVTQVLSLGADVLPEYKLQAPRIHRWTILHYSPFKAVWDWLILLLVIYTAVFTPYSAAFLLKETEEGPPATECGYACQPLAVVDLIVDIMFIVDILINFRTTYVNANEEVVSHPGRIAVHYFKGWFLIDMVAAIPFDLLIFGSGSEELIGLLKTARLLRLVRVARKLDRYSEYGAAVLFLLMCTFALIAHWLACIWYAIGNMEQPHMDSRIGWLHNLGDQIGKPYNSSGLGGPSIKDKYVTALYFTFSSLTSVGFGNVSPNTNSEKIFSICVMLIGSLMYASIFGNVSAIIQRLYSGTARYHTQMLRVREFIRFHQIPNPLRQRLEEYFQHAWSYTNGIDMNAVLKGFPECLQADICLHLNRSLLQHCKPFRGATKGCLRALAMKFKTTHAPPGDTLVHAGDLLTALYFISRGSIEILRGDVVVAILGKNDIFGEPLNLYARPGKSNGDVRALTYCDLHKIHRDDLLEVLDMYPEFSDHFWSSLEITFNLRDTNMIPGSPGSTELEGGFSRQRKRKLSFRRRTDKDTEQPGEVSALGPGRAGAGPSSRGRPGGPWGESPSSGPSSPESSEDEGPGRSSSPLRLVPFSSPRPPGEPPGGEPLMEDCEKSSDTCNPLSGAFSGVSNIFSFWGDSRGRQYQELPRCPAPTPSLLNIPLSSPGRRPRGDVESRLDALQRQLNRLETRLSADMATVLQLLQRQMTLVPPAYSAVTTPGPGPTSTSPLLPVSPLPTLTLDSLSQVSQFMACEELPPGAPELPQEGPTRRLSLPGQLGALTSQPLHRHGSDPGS

SMILES: C[C@H]1Cc2c([nH]c3cc(Cl)c(F)cc23)[C@@]2(N1)C(=O)Nc1ccc(Cl)cc12 [CIPARGAMIN]
- CL/F [1]: 91.7 mL/min
- bioavailability [2]: 85%
- pIC50 [3]: ≤ 4.52
- bioavailability [4]: 100%
- Activity (Plasmodium berghei [5]): 9.96%
- half-life [6]: 8.2 h
- Tmax [7]: 8 h
- pEC50 (Plasmodium falciparum [8]): 8.85 to 9.30
- half-life [9]: 33 h
- pEC50 (Plasmodium falciparum [10]): 8.85 to 9.30
- pIC50 [11]: ≤ 4.52
- Cmax [12]: 1170 ng/mL
- fraction unbound [13]: < 0.003
- Time (Plasmodium falciparum [14]): 12 h
- AUC at 24 h [15]: 29400 ng·h/mL
- Vd [16]: 3.18 L/kg
- Cmax [17]: 868 ng/mL
- Tmax [18]: 1 h
- pEC50 (Plasmodium falciparum [19]): 8.85 to 9.30
- Activity (Plasmodium berghei [20]): 99%
- pEC50 (Plasmodium falciparum [21]): 8.85 to 9.30
- MSD (Plasmodium berghei [22]): >30 days
- MIC (Plasmodium falciparum [23]): 0.126 ng/mL (≈ 0.323 nM)
- pEC50 (Plasmodium falciparum [24]): 8.85 to 9.30
- AUC(0-t) at 24 h [25]: 15000 ng·h/mL
- Activity (Plasmodium falciparum [26]): 100%
- Cmax [27]: 2000 ng/mL
- Tmax [28]: 1.7 h
- half-life [29]: 24 h
- CC50 at 96 h [30]: > 10000 nM
- Activity (Plasmodium vivax [31]): 100%
- Cmax [32]: 1770 ng/mL
- dose excreted [33]: 32%
- pEC50 (Plasmodium falciparum [34]): 8.85 to 9.30
- clearance [35]: 3.35 mL/min/kg
- Vd [36]: 2.17 L/kg
- Time (Plasmodium vivax [37]): 30 h
- Tmax [38]: 5.3 h
- half-life at 24 h (in vivo): 27.7 h
- Time (Plasmodium vivax [39]): 12 h
- ED50 (Plasmodium berghei [40]): 1.2 mg/kg
- ED90 (Plasmodium berghei [40]): 2.7 mg/kg
- ED99 (Plasmodium berghei [40]): 5.3 mg/kg
- pEC50 (Plasmodium falciparum [41]): 8.85 to 9.30
